Test results from ChEMBL document CHEMBL1201862, “PubChem BioAssay data set” (2004).
Activity calls are given as the source filed them.

What was measured:
Vero = experiment: cells; type: functional; details: Chlorocebus sabaeus
[1] = viability of PTEN-deleted HCT116 cells – cell-based, HCT116 PTEN knockout, dose response (AID 1047); type: functional;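 further: HCT116 colon tumor cells with PTEN knocked out; cells exposed to compound for 60 hours before readout; potency for loss of cell viability measured by luminescence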
[2] = target: FAD-linked sulfhydryl oxidase ALR (Homo sapiens, UniProt P55789); experiment: ALR-catalysed DTT oxidation blockers – biochemical, H2O2 detection, luminescence, cherry-pick, dose response (AID 493248)
Genome polyprotein = Genome polyprotein (dengue virus type 2, UniProt P29990); experiment: flavivirus cap methylation enzyme inhibition – biochemical, confirmation dose response, primary screen (AID 588689); type: functional
Nonstructural protein 1 = Nonstructural protein 1 (Influenza A virus, UniProt Q194T2); type: functional, Influenza A virus (A/California/07/2009(H1N1))
[3] = target: T1, Carboxy-terminal domain RNA polymerase II polypeptide A small phosphatase 1 (Homo sapiens, UniProt Q9GZU7); experiment: CTDSP1 inhibitors, concentration-response, biochemical, absorbance readout, ultra-high-throughput screen actives (AID 540297); type: functional
T1 sequence (Q9GZU7 whole entry): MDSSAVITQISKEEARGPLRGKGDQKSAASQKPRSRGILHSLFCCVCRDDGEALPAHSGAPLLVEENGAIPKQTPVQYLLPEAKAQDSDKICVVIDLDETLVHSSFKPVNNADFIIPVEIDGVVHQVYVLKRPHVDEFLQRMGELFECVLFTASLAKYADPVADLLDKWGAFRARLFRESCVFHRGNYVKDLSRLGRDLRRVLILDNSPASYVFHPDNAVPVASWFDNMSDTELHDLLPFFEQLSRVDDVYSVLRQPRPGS

[4] = loss of viability in HepG2 cells – cell-based, CellTiter-Glo, cherry-picked, cytotoxicity control for Shn3 inhibitor project, dose response (AID 624134); type: functional
[5] = reduction of Shn3 3'UTR-driven luciferase in osteoblasts – cell-based, Clone20 osteoblasts, firefly luciferase, cherry-picked, dose response (AID 624132); type: functional;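 further: firefly luciferase luminescence from reporter carrying the Shn3 3'UTR in osteoblasts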
[6] = non-specific 3'UTR reporter inhibition in Clone20-Shn3RL – cell-based, Renilla luciferase, cherry-picked, counter-screen for Shn3 inhibitor project, dose response (AID 624133); type: functional
[7] = target: T2, Heat shock factor protein 1 (Mus musculus, UniProt P38532); experiment: decrease of HSF1-responsive luciferase luminescence – cell-based, NIH3T3, dose retest, confirmation (AID 2382); type: functional;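 further: NIH3T3 fibroblasts with HSF1-driven luciferase reporter stressed by proteasome inhibitor MG132; luminescence from HSF1-driven luciferase expression after 8 hours of MG132 stress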
T2 sequence (P38532 whole entry): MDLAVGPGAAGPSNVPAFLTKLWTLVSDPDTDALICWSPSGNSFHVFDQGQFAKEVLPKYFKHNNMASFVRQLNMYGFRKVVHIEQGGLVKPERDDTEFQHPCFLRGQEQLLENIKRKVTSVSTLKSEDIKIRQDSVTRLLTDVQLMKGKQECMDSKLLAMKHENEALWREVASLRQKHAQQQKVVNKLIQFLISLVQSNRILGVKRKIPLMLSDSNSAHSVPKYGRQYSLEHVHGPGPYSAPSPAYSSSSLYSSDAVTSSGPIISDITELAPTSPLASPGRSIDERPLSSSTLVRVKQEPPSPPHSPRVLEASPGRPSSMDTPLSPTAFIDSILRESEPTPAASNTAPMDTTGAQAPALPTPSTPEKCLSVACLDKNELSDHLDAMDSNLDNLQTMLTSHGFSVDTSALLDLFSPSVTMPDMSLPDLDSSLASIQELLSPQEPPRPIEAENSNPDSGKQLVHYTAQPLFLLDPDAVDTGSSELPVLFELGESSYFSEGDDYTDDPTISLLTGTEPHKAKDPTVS

Protein RecA = target: T3, Protein RecA (Mycobacterium tuberculosis, UniProt P9WHJ3); experiment: Fluorescence Cell-Free Homogeneous Dose Retest to Identify Inhibitors of RecA-Intein Splicing Activity. [Related pubchem assays (depositor defined):AID2097, AID2223, AID489010, AID492950]; type: functional
T3 sequence (P9WHJ3 whole entry): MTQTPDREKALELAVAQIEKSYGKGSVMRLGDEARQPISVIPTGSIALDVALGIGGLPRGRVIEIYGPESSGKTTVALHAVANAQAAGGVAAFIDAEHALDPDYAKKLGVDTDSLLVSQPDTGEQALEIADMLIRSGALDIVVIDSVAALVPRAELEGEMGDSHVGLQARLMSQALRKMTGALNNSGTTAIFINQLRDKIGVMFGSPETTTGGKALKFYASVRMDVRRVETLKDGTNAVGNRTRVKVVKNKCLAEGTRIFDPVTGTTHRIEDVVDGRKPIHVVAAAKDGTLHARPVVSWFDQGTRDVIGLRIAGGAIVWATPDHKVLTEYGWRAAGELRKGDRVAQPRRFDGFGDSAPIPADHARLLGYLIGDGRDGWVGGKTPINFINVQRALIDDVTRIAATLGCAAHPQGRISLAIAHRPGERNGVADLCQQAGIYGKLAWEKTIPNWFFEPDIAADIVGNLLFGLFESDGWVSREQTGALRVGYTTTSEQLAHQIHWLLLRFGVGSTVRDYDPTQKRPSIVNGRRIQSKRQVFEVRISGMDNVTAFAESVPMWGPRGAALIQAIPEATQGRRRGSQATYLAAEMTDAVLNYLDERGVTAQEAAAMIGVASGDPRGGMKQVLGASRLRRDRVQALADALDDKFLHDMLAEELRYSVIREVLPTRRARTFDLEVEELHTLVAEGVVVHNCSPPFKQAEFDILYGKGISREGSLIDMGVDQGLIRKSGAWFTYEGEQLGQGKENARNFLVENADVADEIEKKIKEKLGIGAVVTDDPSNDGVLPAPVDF

[8] = target: T4, Replicative DNA helicase DnaB (Mycobacterium tuberculosis, UniProt P9WMR3); experiment: DnaB intein splicing inhibitors, dose response, biochemical, cell-free fluorescence (AID 449749); type: functional
T4 sequence (P9WMR3 whole entry): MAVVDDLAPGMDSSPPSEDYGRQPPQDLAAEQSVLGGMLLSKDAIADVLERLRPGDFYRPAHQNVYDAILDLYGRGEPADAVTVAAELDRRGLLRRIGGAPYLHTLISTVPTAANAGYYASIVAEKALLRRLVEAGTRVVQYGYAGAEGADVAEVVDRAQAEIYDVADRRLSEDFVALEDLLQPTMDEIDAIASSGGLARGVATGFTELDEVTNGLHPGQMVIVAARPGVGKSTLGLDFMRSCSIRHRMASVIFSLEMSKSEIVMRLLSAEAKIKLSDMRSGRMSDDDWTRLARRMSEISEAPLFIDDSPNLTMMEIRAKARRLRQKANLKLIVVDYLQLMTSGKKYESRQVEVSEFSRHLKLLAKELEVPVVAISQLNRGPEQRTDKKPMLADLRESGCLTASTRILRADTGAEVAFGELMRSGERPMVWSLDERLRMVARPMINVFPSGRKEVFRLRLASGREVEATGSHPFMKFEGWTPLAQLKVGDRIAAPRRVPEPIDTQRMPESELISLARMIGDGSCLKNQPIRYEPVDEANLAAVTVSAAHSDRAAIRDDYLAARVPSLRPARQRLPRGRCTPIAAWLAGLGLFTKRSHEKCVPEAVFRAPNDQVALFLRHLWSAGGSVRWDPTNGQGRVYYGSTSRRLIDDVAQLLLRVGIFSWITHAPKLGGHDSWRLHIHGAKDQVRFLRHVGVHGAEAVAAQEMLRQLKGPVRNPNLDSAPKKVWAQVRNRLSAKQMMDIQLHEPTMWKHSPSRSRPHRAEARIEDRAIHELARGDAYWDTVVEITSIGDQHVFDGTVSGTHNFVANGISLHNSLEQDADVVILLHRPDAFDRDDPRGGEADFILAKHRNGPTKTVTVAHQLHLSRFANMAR

[9] = target: T5, Rac GTPase-activating protein 1 (Homo sapiens, UniProt Q9H0H5); experiment: blockers of MgcRacGAP-driven Rac1 GTP hydrolysis – biochemical, ADP Hunter fluorescence, primary and confirmatory, confirmation (AID 624330); type: functional
T5 sequence (Q9H0H5 whole entry): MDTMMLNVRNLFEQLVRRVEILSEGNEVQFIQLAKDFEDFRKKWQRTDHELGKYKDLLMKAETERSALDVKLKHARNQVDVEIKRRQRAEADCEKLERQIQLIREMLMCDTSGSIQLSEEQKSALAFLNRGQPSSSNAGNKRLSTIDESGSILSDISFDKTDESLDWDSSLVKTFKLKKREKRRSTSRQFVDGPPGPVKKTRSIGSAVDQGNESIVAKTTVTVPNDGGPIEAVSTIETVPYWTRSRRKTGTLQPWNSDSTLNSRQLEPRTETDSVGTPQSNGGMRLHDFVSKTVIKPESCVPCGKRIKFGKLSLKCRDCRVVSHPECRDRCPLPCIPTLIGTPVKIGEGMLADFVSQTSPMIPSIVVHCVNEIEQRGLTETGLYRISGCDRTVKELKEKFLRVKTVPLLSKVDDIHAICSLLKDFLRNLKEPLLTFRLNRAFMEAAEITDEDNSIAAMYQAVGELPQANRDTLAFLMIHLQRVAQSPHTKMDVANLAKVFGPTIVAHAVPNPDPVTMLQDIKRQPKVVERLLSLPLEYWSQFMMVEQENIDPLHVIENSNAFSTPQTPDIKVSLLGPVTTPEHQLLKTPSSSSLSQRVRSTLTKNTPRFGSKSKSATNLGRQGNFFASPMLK

[10] = target: T6, RNA-binding protein pos-1 (Caenorhabditis elegans, UniProt G5EF15); experiment: disruptors of C. elegans POS-1 RNA interaction – biochemical, fluorescence polarization, dose response (AID 1964);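 further: purified POS-1 fused to maltose binding protein made in E. coli; potency of compounds blocking POS-1 binding to fluorescent RNA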
T6 sequence (G5EF15 whole entry): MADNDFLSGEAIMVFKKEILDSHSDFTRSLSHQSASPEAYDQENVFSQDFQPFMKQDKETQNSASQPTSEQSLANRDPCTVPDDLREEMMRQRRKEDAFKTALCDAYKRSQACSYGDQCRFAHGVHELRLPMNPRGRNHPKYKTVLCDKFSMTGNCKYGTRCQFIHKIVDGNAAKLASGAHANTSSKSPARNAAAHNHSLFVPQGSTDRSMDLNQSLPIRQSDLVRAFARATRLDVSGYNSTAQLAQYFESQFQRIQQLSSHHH

Sequence of Nonstructural protein 1 (Q194T2 whole entry, the tested form may be a part): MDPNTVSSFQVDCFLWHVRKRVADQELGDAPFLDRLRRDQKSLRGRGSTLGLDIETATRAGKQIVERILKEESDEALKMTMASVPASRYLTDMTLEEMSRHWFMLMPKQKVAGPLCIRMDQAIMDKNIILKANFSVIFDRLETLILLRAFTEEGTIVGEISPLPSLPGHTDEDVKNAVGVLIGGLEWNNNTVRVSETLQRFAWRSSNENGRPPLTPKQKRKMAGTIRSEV
Sequence of Genome polyprotein (P29990 2492-3391 limits assumed): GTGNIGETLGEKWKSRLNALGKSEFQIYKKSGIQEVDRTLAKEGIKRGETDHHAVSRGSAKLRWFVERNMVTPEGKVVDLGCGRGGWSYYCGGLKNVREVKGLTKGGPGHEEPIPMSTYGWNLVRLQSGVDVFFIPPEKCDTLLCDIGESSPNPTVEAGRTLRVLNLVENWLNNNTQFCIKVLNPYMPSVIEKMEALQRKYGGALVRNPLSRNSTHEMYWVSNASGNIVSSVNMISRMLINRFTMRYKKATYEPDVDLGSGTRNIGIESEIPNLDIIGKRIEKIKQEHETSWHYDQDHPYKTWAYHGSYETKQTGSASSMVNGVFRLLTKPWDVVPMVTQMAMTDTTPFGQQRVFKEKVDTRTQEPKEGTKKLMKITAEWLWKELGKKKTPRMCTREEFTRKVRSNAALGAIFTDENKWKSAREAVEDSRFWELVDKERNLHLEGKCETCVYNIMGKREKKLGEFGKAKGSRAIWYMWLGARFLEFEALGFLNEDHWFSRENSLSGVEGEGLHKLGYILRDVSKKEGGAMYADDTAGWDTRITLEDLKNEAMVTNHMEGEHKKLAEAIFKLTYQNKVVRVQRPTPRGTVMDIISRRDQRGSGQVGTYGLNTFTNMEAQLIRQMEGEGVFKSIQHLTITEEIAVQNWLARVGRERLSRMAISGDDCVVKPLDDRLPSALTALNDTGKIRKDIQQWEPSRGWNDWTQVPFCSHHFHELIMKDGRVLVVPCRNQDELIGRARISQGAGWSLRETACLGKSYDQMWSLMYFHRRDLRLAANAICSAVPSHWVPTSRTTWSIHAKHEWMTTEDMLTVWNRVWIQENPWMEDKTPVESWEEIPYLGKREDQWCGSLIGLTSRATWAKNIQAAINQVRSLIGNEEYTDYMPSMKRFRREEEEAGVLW
Sequence of FAD-linked sulfhydryl oxidase ALR (P55789 whole entry): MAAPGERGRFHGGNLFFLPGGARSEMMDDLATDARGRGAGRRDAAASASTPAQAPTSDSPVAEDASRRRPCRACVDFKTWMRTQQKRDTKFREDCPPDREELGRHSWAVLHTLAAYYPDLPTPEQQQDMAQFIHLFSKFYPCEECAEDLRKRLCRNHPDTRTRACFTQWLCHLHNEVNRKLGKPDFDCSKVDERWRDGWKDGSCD

CCN(CC)CCNc1nc(-c2ccc(OC)cc2)c(-c2ccc(OC)cc2)s1
CC50 (Vero): > 25 µM (active)

CCN1CCN(c2cc(C)c3cc(NC(=O)c4ccc5c(c4)OCO5)ccc3n2)CC1
EC50 [1]: 25.1 µM (active)
CC50 (Vero): > 25 µM (active)

COc1ccc(CSC2=NCCN2)cc1Br
AC50 [2]: 0.007 µM (active)

COc1cc(C(C2C(=O)CC(C)(C)CC2=O)C2C(=O)CC(C)(C)CC2=O)cc(OC)c1OC
IC50 (Genome polyprotein): 87.7 µM (active)

Oc1ccc2ccccc2c1N=Nc1ccc(F)cc1
IC50 (Nonstructural protein 1): 16.2 µM (active)

Cc1noc(-c2ccc(Cl)cc2)c1C(=O)ON=C(N)c1ccc(C(C)(C)C)cc1
CC50 (Vero): 18.8 µM (active)

N#CCC(=O)Nc1sc2c(c1C(N)=O)CCCC2
AC50 [2]: 14.4 µM (active)

C/C=C\C=C\C(=O)N1CC2(CC(c3cccc(NC(=O)CC)c3)=NO2)C[C@H]1C(N)=O (stereo partly drawn)
IC50 [3]: 7.57 µM (active)

O=C(CCC1N=C2c3ccccc3N=C(SCC(=O)NCc3ccco3)N2C1=O)NCc1ccco1 (stereo not drawn)
IC50 [3]: 5.31 µM (active)

CC(Sc1nc2ccccc2c(=O)n1C)C(=O)Nc1ccc2c(c1)OCCO2 (stereo not drawn)
AC50 [4]: > 70 µM (inactive)
AC50 [5]: 1.94 µM (active)
AC50 [6]: 9.21 µM (active)

Cc1nn(Cc2cccc(C(=O)NC3CCCCC3)c2)c(C)c1Cl
CC50 (Vero): > 25 µM (active)

O=C1CC(NNc2ccccc2)C(=O)N1c1cccc(Cl)c1 (stereo not drawn)
AC50 [2]: 0.319 µM (active)

Cc1c(CCC(=O)N[C@@H](C)C(=O)O)c(=O)oc2c(C)c3oc4c(c3cc12)CCCC4
AC50 [2]: 3.72 µM (active)

CCOC(=O)C1(C)C(N=Nc2cccc(Cl)c2)=C(O)C(=O)N1c1ccccc1 (stereo not drawn)
IC50 (Genome polyprotein): 18.4 µM (active)

Cc1c(NS(=O)(=O)c2cc(C(=O)NCCN(C)C)ccc2Cl)c(=O)n(-c2ccccc2)n1C
EC50 [7]: > 195 µM (not active)
IC50 [3]: 9.93 µM (active)

CCc1ccc(-c2csc3[n+]2CCN3C(C)=O)cc1
AC50 [2]: 3.62 µM (active)

CC(C(=O)Nc1ccc(S(N)(=O)=O)cc1)N1CCc2ccccc21 (stereo not drawn)
AC50 [2]: 1.8 µM (active)

Cc1cc(NNC(=O)c2cccc(C(F)(F)F)c2)nc2c1c(C)nn2C
AC50 [4]: 57 µM (active)
AC50 [5]: 2.43 µM (active)
AC50 [6]: 3.61 µM (active)

N#C/C(=C\c1ccccc1[N+](=O)[O-])c1nc(C2CC2)cs1
IC50 (Nonstructural protein 1): 75.1 µM (active)

NC(=NO)c1ccc(NC(=O)c2ccc(Br)o2)cc1
AC50 [2]: 0.16 µM (active)

CS(=O)(=O)C1=NN2C(=N)/C(=C\c3ccc(OCCOc4ccccc4)cc3)C(=O)N=C2S1
IC50 [3]: 6.76 µM (active)

Cc1ccc(C)c(N2CCN(C(=O)CCS(=O)(=O)c3ccc4c(c3)NC(=O)C(C)S4)CC2)c1 (stereo not drawn)
AC50 [4]: 4.58 µM (active)
AC50 [5]: 4.47 µM (active)
AC50 [6]: 8.6 µM (active)

COc1ccccc1/C=C1/C(=O)N(c2ccccc2)N=C1C
EC50 (Protein RecA): 0.0356 µM (active)
AC50 [8]: 96.6 µM (active)
IC50 (Genome polyprotein): 90.2 µM (active)
IC50 [9]: 119 µM (active)

Nc1ccc(NC(=O)c2ccco2)c(Cl)c1
AC50 [2]: 1.72 µM (active)

CC(=Nc1ccccc1)C1=C(O)C(Cc2ccc(O)cc2)NC1=O (stereo not drawn)
CC50 (Vero): 0.98 µM (active)

CN(C)C(=O)c1ccc(NC(=O)c2cc(-c3ccco3)nc3ccccc23)cc1
IC50 [3]: 7.55 µM (active)

Oc1ccc(/C=N/Nc2[nH]cnc3ncnc2-3)cc1
IC50 [9]: 11.6 µM (active)
EC50 [10]: > 300 µM (not active)

CC1CC/C(=N/Nc2ccccc2)C(=O)N1 (stereo not drawn)
AC50 [2]: 0.623 µM (active)

Cc1ccn(CC(=O)N/N=C/c2cc([N+](=O)[O-])ccc2O)n1
IC50 (Nonstructural protein 1): 7.07 µM (active)

O=C(N/N=C/C1C(=O)NC(=S)N(c2ccccc2)C1=O)c1cc(Br)c(O)c(Br)c1 (stereo not drawn)
IC50 (Nonstructural protein 1): 10.5 µM (active)

Cc1cc2c(s1)Nc1ccccc1N=C2N1CCN(C)CC1 [OLANZAPINE]
AC50 [2]: 0.369 µM (active)
